Reference: paper PMC8486872, “A rational blueprint for the design of chemically-controlled protein switches” (Nature Communications, 2021)
pIC50: −log10 of the molar value. “And” between values parts separate entries of the source, which are not always exact repeats. Equal values may be shown once.

Key:
Assay type in all cases: cell-based
[1] = system: Gal4/UAS SEAP expression in HEK293T cells; assay: Drug specificity of CDH-TFs; settings: Suppl Fig 7b
Description: Supplementary Figure 7: Dose-dependence and reversibility characterization of CDHs in CDH-
a) Background signal of SEAP reporter in the absence of the CDH-TF system. HEK239T cells were
(§1) transfected with SEAP reporter S132 and treated with 1 µM Drugs 12 hours post transfection.
(§2) Quantification of SEAP was performed 24 hours after drug treatment. b) Drug specificity of CDH-TFs. […]

[2] = system: SEAP expression in HEK293T cells; assay: Background signal of SEAP reporter and single-construct controls
Description: Supplementary Figure 7: Dose-dependence and reversibility characterization of CDHs in CDH- […]
as §1, §2
Background signal of SEAP reporter in the absence of the CDH-GEMS system. HEK293T cells were transfected with pLS566 SEAP reporter plasmids and treated with drugs. Quantification of SEAP was performed 24 hours post drug treatment. f) SEAP activity upon transfecting single or paired […]
Quantification of SEAP activity of three CDHs with DMSO (dark color), specific (light color) and unspecific drug treatment (gray). […]
(culture medium) in panels of b, c, f and g were collected every 12 hours. Values were normalized to zero based on the SEAP expression at time 0. a, b, e, f, g) The bar charts show the mean ± s.d. of n = 3 biologically independent samples overlaid with a scatter dot plot of the original data points.

[3] = system: SEAP and Luciferase expression in HEK293T cells; assay: MIMO designer cells (AIR-1/2-GEMS + CDH-3-TF); settings: for SEAP: Fig5c, turn ON via AIR-2-GEMS
Description: We first engineered MIMO cells to respond to two drugs with distinct outputs (Fig. 5a) by co-transfecting the CDH-3-TF with either AIR-1-GEMS (Fig. 5b) or AIR-2-GEMS (Fig. 5c).
Fig. 5 Orthogonal chemical switches enable implementation of multi-input multi-output control modes in mammalian cells. a Scheme of multi-inputs multi-outputs (MIMO) designer cells where two drugs control two different outputs. b, c Cells were co-transfected with AIR-1/2-GEMS and CDH-3-TF regulate SEAP and Luciferase expression, respectively. […] AIR-1/2-GEMS coupled with SEAP expression circuits were co-transfected with CDH-1/2-TF circuits which control the Luciferase production. Respective drug concentrations ranged from 0.001 nM to 1 µM. All values presented are mean ± s.d. of three replicates and curves were fitted by four-parameters nonlinear regression. b, c, e, f, h, i Source data are available in the source data file.
Supplementary Figure 13: Orthogonal chemical switches enable implementation of multi-input multi-output control modes in mammalian cells. a) Dual drug toxicity tests in 293T cells. […]
concentrations of 1 nM, 10 nM, 100 nM and 1000 nM each drug in cell culture medium. CCK8 assay was performed 24 hours after drug treatment. Each bar represents the mean of three biological replicates ± s.d, overlaid with a scatter dot plot of the original data points. b-c) Cells were co-transfected with AIR-1-GEMS and CDH-3-TF regulate SEAP and Luciferase expression, respectively. Drug concentrations ranged from 0.001 nM to 1 µM and different combinations were added depending on the protein components, Drug-1 only (b) and Drug-3 only (c). d-e) Cells were co-transfected with AIR-2-GEMS and CDH-3-TF regulate SEAP and Luciferase expression, respectively. Drug concentrations ranged from 0.001 nM to 1 µM and different combinations were added depending on the protein […]
1-TF and CDH-3-TF circuits. Drug-1 concentrations ranged from 0.001 nM to 1 µM (left) and 1 µM Drug-1 with serial diluted Drug-3 from 0.001 nM to 1 µM (right). g) Quantification of SEAP activity controlled by CDH-1-GEMS and CDH-3-GEMS circuits. Drug-1 concentrations ranged from 0.001 nM to 1 µM (left) and Drug-3 dilution along with 1 µM Drug-1 (right). h-i) Quantification of SEAP and Luciferase activities under Drug-1. AIR-1-GEMS coupled with SEAP expression circuits (i) and CDH-1-TF circuits which control the Luciferase production (j). j-k) Quantification of SEAP and Luciferase activities under Drug-2. AIR-2-GEMS coupled with SEAP expression circuits (k) and CDH-2-TF circuits which control the Luciferase production (l). b-k) Each data point represents the mean of n = 3 biological replicates, and the dose-dependent curve were fitted using four-parameter nonlinear regression.

[4] = Suppl Fig 7a, TF reporter (S132) only
[5] = Suppl Fig 7e, GEMS reporter (pLS566) only
[6] = Fig5c SEAP via AIR-2-GEMS, four-parameter fit

`CN(C)CC#Cc1ccc(OCCCc2sc(N3CCc4cccc(C(=O)Nc5nc6ccccc6s5)c4C3)nc2C(=O)O)c(F)c1` [Drug-1, A-1155463] was tested, and the “Reporter signal, drug specificity” value ([1]; CDH1) was 10.7853 and 9.721 and 10.2555, the “Reporter signal, drug specificity” value ([1]; CDH3) was 120.91 and 123.106 and 130.139 and the Reporter background signal [2, 4] was 2.1563 and 2.182 and 2.388. The Reporter background signal [2, 5] was 2.888 and 3.062 and 3.039, the “AIR-1-GEMS controlled SEAP expression” value ([3]; Fig S13b, Drug-1 0.01 nM) was 2.034 U/L and 2.266 U/L and 2.426 U/L and the “CDH-3-TF controlled Luciferase expression” value ([3]; Fig S13b, Drug-1 0.01 nM) was 63197 RLU and 77075 RLU and 76343 RLU. For the same molecule, the “AIR-1-GEMS controlled SEAP expression” value ([3]; Fig S13b, Drug-1 0.1 nM) was 2.577 U/L and 3.504 U/L and 1.937 U/L, the “CDH-3-TF controlled Luciferase expression” value ([3]; Fig S13b, Drug-1 0.1 nM) was 69663 RLU and 84855 RLU and 75827 RLU and the “AIR-1-GEMS controlled SEAP expression” value ([3]; Fig S13b, Drug-1 1 nM) was 2.677 U/L and 2.7744 U/L and 2.999 U/L. The “CDH-3-TF controlled Luciferase expression” value ([3]; Fig S13b, Drug-1 1 nM) was 81097 RLU and 77144 RLU and 82001 RLU, the “AIR-1-GEMS controlled SEAP expression” value ([3]; Fig S13b, Drug-1 3.16 nM) was 4.756 U/L and 3.455 U/L and 4.71 U/L and the “CDH-3-TF controlled Luciferase expression” value ([3]; Fig S13b, Drug-1 3.16 nM) was 79328 RLU and 72559 RLU and 71332 RLU. For the same molecule, the “AIR-1-GEMS controlled SEAP expression” value ([3]; Fig S13b, Drug-1 10 nM) was 14.6262 U/L and 14.8753 U/L and 12.6214 U/L, the “CDH-3-TF controlled Luciferase expression” value ([3]; Fig S13b, Drug-1 10 nM) was 80379 RLU and 81140 RLU and 95805 RLU and the “AIR-1-GEMS controlled SEAP expression” value ([3]; Fig S13b, Drug-1 31.6 nM) was 24.9389 U/L and 23.1767 U/L and 24.3137 U/L. For the same molecule, the “CDH-3-TF controlled Luciferase expression” value ([3]; Fig S13b, Drug-1 31.6 nM) was 89062 RLU and 83795 RLU and 94983 RLU, the “AIR-1-GEMS controlled SEAP expression” value ([3]; Fig S13b, Drug-1 100 nM) was 28.6367 U/L and 35.4252 U/L and 28.7763 U/L and the “CDH-3-TF controlled Luciferase expression” value ([3]; Fig S13b, Drug-1 100 nM) was 85794 RLU and 82597 RLU and 83527 RLU. For the same molecule, the “AIR-1-GEMS controlled SEAP expression” value ([3]; Fig S13b, Drug-1 316 nM) was 33.0089 U/L and 34.8793 U/L and 29.7782 U/L, the “CDH-3-TF controlled Luciferase expression” value ([3]; Fig S13b, Drug-1 316 nM) was 82096 RLU and 72932 RLU and 89789 RLU and the “AIR-1-GEMS controlled SEAP expression” value ([3]; Fig S13b, Drug-1 1000 nM) was 37.3806 U/L and 38.9993 U/L and 31.1376 U/L. For the same molecule, the “CDH-3-TF controlled Luciferase expression” value ([3]; Fig S13b, Drug-1 1000 nM) was 73138 RLU and 75381 RLU and 85198 RLU.

In the case of `CC1(C)CCC(CN2CCN(c3ccc(C(=O)NS(=O)(=O)c4ccc(NCC5CCOCC5)c([N+](=O)[O-])c4)c(Oc4cnc5[nH]ccc5c4)c3)CC2)=C(c2ccc(Cl)cc2)C1` [Drug-2, Venetoclax], the “Reporter signal, drug specificity” value ([1]; CDH2) was 31.2802 and 28.6812 and 29.088, the Reporter background signal [2, 4] was 2.167 and 2.065 and 2.282 and the Reporter background signal [2, 5] was 2.782 and 3.488 and 3.279. The “Bottom (best-fit value)” value [3, 6] was 11.58, the “HillSlope (best-fit value)” value [3, 6] was 0.4637 and the “Span (best-fit value)” value [3, 6] was 174.4. For the same molecule, the “Top (best-fit value)” value [3, 6] was 186, the “logIC50 (best-fit value)” value ([3]; Fig5c SEAP via AIR-2-GEMS, four-parameter fit, drug in nM) was 2.821 and the SEAP ([3]; 0.1 nM) was 16.9661 U/L and 14.3649 U/L and 16.0293 U/L. For the same molecule, the SEAP ([3]; 0.5 nM) was 32.7217 U/L and 18.5086 U/L and 20.3629 U/L, the SEAP ([3]; 1 nM) was 9.507 U/L and 8.828 U/L and 9.449 U/L and the SEAP ([3]; 5 nM) was 12.4048 U/L and 14.8898 U/L and 15.5553 U/L. For the same molecule, the SEAP ([3]; 10 nM) was 53.9453 U/L and 51.1 U/L and 44.2357 U/L, the SEAP ([3]; 50 nM) was 67.8694 U/L and 53.3505 U/L and 65.0318 U/L and the SEAP ([3]; 500 nM) was 99.6195 U/L and 87.3604 U/L and 83.3391 U/L. For the same molecule, the SEAP ([3]; 1000 nM) was 116.832 U/L, the “AIR-2-GEMS controlled SEAP expression” value ([3]; Fig S13d, Drug-2 0.01 nM) was 59.8517 U/L and 85.418 U/L and 69.2527 U/L and the “CDH-3-TF controlled Luciferase expression” value ([3]; Fig S13d, Drug-2 0.01 nM) was 46959 RLU and 46941 RLU and 46901 RLU. For the same molecule, the “AIR-2-GEMS controlled SEAP expression” value ([3]; Fig S13d, Drug-2 0.1 nM) was 118.67 U/L and 114.835 U/L and 107.758 U/L, the “CDH-3-TF controlled Luciferase expression” value ([3]; Fig S13d, Drug-2 0.1 nM) was 41162 RLU and 49637 RLU and 46127 RLU and the “AIR-2-GEMS controlled SEAP expression” value ([3]; Fig S13d, Drug-2 1 nM) was 115.899 U/L and 181.597 U/L and 152.021 U/L. For the same molecule, the “CDH-3-TF controlled Luciferase expression” value ([3]; Fig S13d, Drug-2 1 nM) was 45977 RLU and 44865 RLU and 47068 RLU, the “AIR-2-GEMS controlled SEAP expression” value ([3]; Fig S13d, Drug-2 3.14 nM) was 134.444 U/L and 173.229 U/L and 165.776 U/L and the “CDH-3-TF controlled Luciferase expression” value ([3]; Fig S13d, Drug-2 3.14 nM) was 43947 RLU and 39268 RLU and 39254 RLU. For the same molecule, the “AIR-2-GEMS controlled SEAP expression” value ([3]; Fig S13d, Drug-2 10 nM) was 190.854 U/L and 240.534 U/L and 260.228 U/L, the “CDH-3-TF controlled Luciferase expression” value ([3]; Fig S13d, Drug-2 10 nM) was 47016 RLU and 49191 RLU and 50470 RLU and the “AIR-2-GEMS controlled SEAP expression” value ([3]; Fig S13d, Drug-2 31.4 nM) was 299.546 U/L and 359.696 U/L and 315.099 U/L. For the same molecule, the “CDH-3-TF controlled Luciferase expression” value ([3]; Fig S13d, Drug-2 31.4 nM) was 45761 RLU and 44242 RLU and 45130 RLU, the “AIR-2-GEMS controlled SEAP expression” value ([3]; Fig S13d, Drug-2 100 nM) was 326.848 U/L and 345.031 U/L and 379.553 U/L and the “CDH-3-TF controlled Luciferase expression” value ([3]; Fig S13d, Drug-2 100 nM) was 45390 RLU and 42062 RLU and 45223 RLU. For the same molecule, the “AIR-2-GEMS controlled SEAP expression” value ([3]; Fig S13d, Drug-2 314 nM) was 491.977 U/L and 483.914 U/L and 518.642 U/L, the “CDH-3-TF controlled Luciferase expression” value ([3]; Fig S13d, Drug-2 314 nM) was 40043 RLU and 38537 RLU and 34569 RLU and the “AIR-2-GEMS controlled SEAP expression” value ([3]; Fig S13d, Drug-2 1000 nM) was 386.41 U/L and 334.548 U/L and 408.363 U/L. The “CDH-3-TF controlled Luciferase expression” value ([3]; Fig S13d, Drug-2 1000 nM) was 40262 RLU and 37715 RLU and 45464 RLU and the pIC50 ([3]; Homo sapiens, HEK-293T, Fig5c SEAP turn ON via AIR-2-GEMS, four-parameter fit, given as IC50, read-out: IC50 (best-fit value)) was 6.18.
